Data as given in patent US11814448B2, “Carrier peptide fragment and use thereof” (TOAGOSEI CO., LTD., priority 2020, dated 2023).
FAM = FAM fluorescent dye

Test system: HeLa cells
Assay: Evaluation of cell membrane permeability by flow cytometry (FAM fluorescence) in HeLa cells
Assay type: cell-based, human
Conditions: 20-hour incubation; for MFI (mean fluorescent intensity): 10 μM in culture medium, 0.5% DMSO, FL2 fluorescence detector; for introduction of the fluorescent dye (FAM) into the cytoplasm, from the histogram shift (FIG. 1), compared with Example 3 (FAM only): histogram of fluorescent intensity vs cell count
Procedure: The cell membrane permeability of sample 1 and sample 2 was evaluated using HeLa cells (an established cell line derived from human cervical cancer cells) as the eukaryotic cells.
HeLa cells were cultured on DMEM (Dulbecco's modified Eagle's medium (Cat. No. 043-30085, from FUJIFILM Wako Pure Chemical Corporation)) containing 10% FBS (fetal bovine serum), which is a general culture medium.
The HeLa cells attached to the culture plate were washed with PBS, a 0.25% trypsin/EDTA solution was then added, and incubation was carried out for 3 minutes at 37° C. After this incubation, the aforementioned DMEM containing 10% FBS was added and the trypsin was inactivated, and the cells were then sedimented by carrying out centrifugal separation for 5 minutes at 150×g. The supernatant produced by the centrifugal separation was removed, and the aforementioned DMEM containing 10% FBS was added to the sediment (cell pellet) to prepare a cell suspension containing approximately 1×10^5 cells/mL. The cells were seeded (approximately 2×10^5 cells/well) by the addition of 2 mL of this cell suspension to the wells of a commercial 6-well plate ((Iwaki microplate commercially available from AGC techno glass Co., Ltd). The cells were attached to the well bottom by culture for 3 hours at 37° C. under the condition of 5% CO2.
The 2 mM sample solution 1 was then diluted with the aforementioned DMEM containing 10% FBS to prepare a sample solution 1 in which the sample 1 concentration was 20 μM. After the aforementioned 3-hour culture, 1 mL of the culture supernatant was removed from the wells, followed by the addition to the wells of 1 mL of the 20 μM sample solution 1 (i.e., the concentration of sample 1 in the culture medium in the wells was brought to 10 μM and the DMSO concentration was brought to 0.5%). The cells were incubated for 20 hours at 37° C. under the condition of 5% CO2. After this 20-hour incubation, the culture supernatant was removed from the wells and the cells in the wells were washed twice with 1 mL PBS. 200 μL of 0.25% trypsin/EDTA was then added to the wells and incubation was carried out for 3 minutes at 37° C. After this incubation, the trypsin was inactivated by the addition of 400 μL of the aforementioned DMEM containing 10% FBS to the wells, and the cells were subsequently recovered by transferring the cell suspensions in the wells to a tube. The wells were then washed by the further addition of 600 μL PBS to the wells. The cells that had remained in the wells were recovered to the tube by transferring the PBS in the wells to the tube. Centrifugal separation was run on this tube for 5 minutes using conditions of 4° C. and 210×g. After the centrifugal separation, the supernatant was removed, the sediment (cell pellet) was suspended (washed) with 1 mL of PBS, and centrifugal separation was carried out using the same conditions as before. After this procedure has been repeated twice, the supernatant was removed to obtain cells (cell pellet) that had been cultured on a sample 1-containing culture medium.
The cell permeability of sample 1 was analyzed using the resulting cells (cell pellet) and a flow cytometer. An On-Chip Flow Cytometer (On-chip Biotechnologies Co., Ltd.) was used for the flow cytometer.
For this analysis, the cell pellet obtained as described above was suspended in 50 μL PBS. To this suspension was added 50 μL of 2×Sample Buffer for use with the indicated flow cytometer to prepare a cell suspension for submission to analysis.
Gating was performed using this flow cytometer based on forward scatter (FSC) and side scatter (SSC); the gating was set for the cell population that was the target of the analysis; and the fluorescent intensity was measured for the cell population within this gating. The analysis was performed so this cell population reached approximately 10,000. […]

## FAM-KKRTLRKNDRKKR-CONH2 ({FAM}-KKRTLRKNDRKKR-NH2) [Example 2]
  MFI (mean fluorescent intensity): 10.5
10 μM
  introduction of the fluorescent dye (FAM) into the cytoplasm, from the histogram shift (FIG. 1), compared with Example 3 (FAM only): more efficiently introduced

## 5(6)-carboxyfluorescein [Example 3]
  MFI (mean fluorescent intensity): 5.9

## FAM-VVRSLVKVVRSLVK-CONH2 ({FAM}-VVRSLVKVVRSLVK-NH2) [Example 1]
  MFI (mean fluorescent intensity): 690
10 μM
  introduction of the fluorescent dye (FAM) into the cytoplasm, from the histogram shift (FIG. 1), compared with Example 3 (FAM only): more efficiently introduced
10 μM, ratio of MFI values of Table 3
  efficiency (cell membrane permeability) compared using the MFI, Example 1 versus Example 2: approximately 65.7 times
